What was measured:
[1] = system: SK-MES-1 human lung cancer cells; assay: MTT cytotoxicity assay, 72 h, lung cancer cells; type: cell-based; conditions: 72 h exposure, six determinations, read-out: IC50 ± SEM SK-MES-1
Procedure: (§1) The series of isoquinolinequinone amino ester conjugates (Table 1) and the bromine derivatives (Table 2) were evaluated for their in vitro cytotoxic activities against normal human lung fibroblast (MRC-5) and three human cancer cells lines: human gastric adenocarcinoma (AGS), human lung cancer (SK-MES-1), and human bladder carcinoma (J82), in 72 h drug exposure assays. The cytotoxic activities of the new compounds were measured using conventional microculture tetrazolium reduction assays. The cytotoxic activities of each of the quinones are expressed in terms of IC50.
(§2) Cytotoxicity assay (Table 3 and Table 4). […] MRC-5, SK-MES-1, and J82 cells were grown in Eagle’s minimal essential medium (EMEM) containing 2 mM L-glutamine, 1 mM sodium pyruvate and 1.5 g/L sodium hydrogen carbonate. AGS cells were grown in Ham F-12 supplemented with 2 mM L-glutamine and 1.5 g/L sodium hydrogen carbonate. Finally, HL-60 cells were grown in RPMI medium. […] For the cytotoxicity experiments, cells were seeded into 96-well plates at a density of 50,000 cells/mL. After reaching confluence, cells were incubated for three days with compounds at varied concentrations ranging from 0 up to 100 μM while untreated cells (medium containing 1% DMSO) were used as controls. Cytotoxicity was assessed using the MTT (3-(4,5-dimethylthiazol-2-yl)-2,5-diphenyltetrazolium bromide) reduction assay. MTT was used at 1 mg/mL and the blue formazan crystals, formed during MTT reduction, were dissolved adding 100 μL of ethanol (acidified with HCl). The absorbance was measured at 550 nm using a Universal Microplate Reader (ELX 800, Bio-Tek Instruments Inc., Winooski, VT, USA). Values were the means of six replicates for each concentration and transformed to percentage of controls. The IC50 value was graphically obtained from the dose–response curves by adjusting them to a sigmoidal model (a + (b − a)/1 + 10(x − c)), where c = log IC50.

[2] = system: AGS human gastric adenocarcinoma cells; assay: MTT cytotoxicity assay, 72 h, gastric adenocarcinoma cells; type: cell-based; conditions: 72 h exposure, six determinations, read-out: IC50 ± SEM AGS
Procedure: as §1, §2

[3] = system: AGS, SK-MES-1 and J82 human cancer cell lines; assay: MTT cytotoxicity, 72 h, panel summary (mean/range/selective index) over AGS, SK-MES-1, J82 vs MRC-5; type: cell-based; conditions: for MSI: Mean Selective Index = IC50 values for fibroblasts/IC50 values tumor cells: MRC-5 vs AGS
Procedure: as §1, §2

[4] = system: MRC-5 normal human lung fibroblasts; assay: MTT cytotoxicity assay, 72 h, normal human lung fibroblasts; type: cell-based; conditions: for IC50: MRC5, normal human lung fibroblasts, MTT, 72 h exposure, six determinations, read-out: IC50 ± SEM MRC-5
Procedure: as §1, §2

[5] = system: J82 human bladder carcinoma cells; assay: MTT cytotoxicity assay, 72 h, bladder carcinoma cells; type: cell-based; conditions: 72 h exposure, six determinations, read-out: IC50 ± SEM J82
Procedure: as §1, §2

[6] = system: T24 (bladder) human cancer cells; assay: MTT cytotoxicity assay, 48 h, bladder cancer cells; type: cell-based; conditions: three experiments, read-out: IC50 ± SEM T24
Procedure: (§3) Cytotoxicity assay (Table 5). […] The cytotoxic effect of compounds on cell lines was assessed using the MTT assay as reported previously. Briefly, 10,000 cells/well were plated for 24 h in 96-well plates and, after reaching confluence, the cells were incubated for 48 h with DMSO or in the presence of compounds. Cells were washed twice with warm phosphate-buffered saline (PBS) and further incubated for 2 h with MTT (0.5 mg/mL). The blue formazan crystals were then solubilized by adding 100 μL DMSO/well and optical density of colored solutions was read at 550 nm. Results are expressed as % of MTT reduction compared to untreated control conditions. The calculation of IC50 values was performed by using GraphPad Prism software (San Diego, CA, USA).

[7] = system: T24, DU-145 and MCF-7 human cancer cell lines; assay: MTT cytotoxicity, 48 h, panel summary (range/selective index) over T24, DU-145, MCF-7 vs AG 1523; type: cell-based
Procedure: as §3

[8] = system: MCF-7 (breast) human cancer cells; assay: MTT cytotoxicity assay, 48 h, breast cancer cells; type: cell-based; conditions: MCF7, three experiments, read-out: IC50 ± SEM MCF-7
Procedure: as §3

[9] = system: DU-145 (prostate) human cancer cells; assay: MTT cytotoxicity assay, 48 h, prostate cancer cells; type: cell-based; conditions: three experiments, read-out: IC50 ± SEM DU-145
Procedure: as §3

[10] = system: AG 1523 normal human fibroblasts; assay: MTT cytotoxicity assay, 48 h, normal human fibroblasts; type: cell-based; conditions: AG1523, healthy non-tumor fibroblasts, three experiments, read-out: IC50 ± SEM AG 1523
Procedure: as §3

Q: What does the source list for `COC(=O)c1c(C)ncc2c1C(=O)C=C(N[C@@H](Cc1c[nH]c3ccccc13)C(=O)OC)C2=O` [Compound 8a, Methyl 6- and 7-(3-(1H-indol-3-yl)-1-methoxy-1-oxopropan-2-ylamino)-3-methyl-5,8-dioxo-5,8-dihydroisoquinoline-4-carboxylate]?
A: IC50 [1]: 3630 ± 180 nM; IC50 [2]: 2540 ± 180 nM; MSI: Mean Selective Index = IC50 values for fibroblasts/IC50 values tumor cells ([3]; SK-MES-1, J82): 1.45; IC50 [4]: 6620 ± 460 nM; IC50 [5]: 7560 ± 520 nM

Q: Which results are given for `COC(=O)c1c(C)ncc2c1C(=O)C(N[C@H](Cc1ccccc1)C(=O)OC)=CC2=O` [Compound 10b, Methyl 6- and 7-(1-methoxy-1-oxo-3-phenylpropan-2-ylamino)-3-methyl-5,8-dioxo-5,8-dihydroisoquinoline-4-carboxylate]?
A: IC50 [1]: 1200 ± 50 nM; IC50 [2]: 1980 ± 110 nM; IC50 ([3]; Homo sapiens, SK-MES-1, 72 h, range over AGS, SK-MES-1, J82, 72 h MTT, read-out: IC50 values range over the cancer cell lines): 580 to 3180 nM; MSI: Mean Selective Index = IC50 values for fibroblasts/IC50 values tumor cells ([3]; SK-MES-1, J82): 0.82; IC50 [4]: 1780 ± 120 nM; IC50 [5]: 3030 ± 170 nM; melting point: 71.5 to 73 °C

Q: For `COC(=O)c1c(C)ncc2c1C(=O)C(Br)=C(NC(C)C(=O)OC)C2=O` (stereo not shown) [Compound 12, Methyl 6-bromo-7-(1-methoxy-1-oxopropan-2-ylamino)-3-methyl-5,8-dioxo-5,8-dihydroisoquinoline-4-carboxylate], which IC50 [1] is on record?
A: The IC50 was 1960 ± 110 nM.

Q: And the IC50 [2]?
A: Its IC50 is 2070 ± 110 nM.

Q: And the “MSI: Mean Selective Index = IC50 values for fibroblasts/IC50 values tumor cells” value (shortened to “MSI: Mean Selective Index = IC50 values”) ([3]; SK-MES-1, J82)?
A: Its value is 1.10.

Q: And the IC50 [4]?
A: The IC50 was 2860 ± 170 nM.

Q: And the IC50 [5]?
A: The IC50 was 3760 ± 260 nM.

Q: What about the melting point of the same compound?
A: The melting point was 120.5 to 122 °C.

Q: With `COC(=O)c1c(C)ncc2c1C(=O)C(Br)=C(NC(C(=O)OC)C(C)C)C2=O` (stereo not shown) [Compound 13a] as the compound, how does the IC50 [1] read?
A: Its IC50 is 2280 ± 90 nM.

Q: What about the IC50 [2] of the same compound?
A: Its IC50 is 1920 ± 130 nM.

Q: And the “MSI: Mean Selective Index = IC50 values” value ([3]; SK-MES-1, J82)?
A: The value was 1.15.

Q: And the IC50 [4]?
A: The IC50 was 2980 ± 210 nM.

Q: And the IC50 [5]?
A: Its IC50 is 4010 ± 190 nM.

Q: What about the melting point of the same compound?
A: The melting point was 105.2 to 107 °C.

Q: With `COC(=O)c1c(C)ncc2c1C(=O)C(NC(C(=O)OC)C(C)C)=C(Br)C2=O` (stereo not shown) [Compound 13b] as the compound, how does the IC50 [1] read?
A: Its IC50 is 3900 ± 310 nM.

Q: And the IC50 [2]?
A: Its IC50 is 2700 ± 140 nM.

Q: What about the “MSI: Mean Selective Index = IC50 values” value ([3]; SK-MES-1, J82) of the same compound?
A: Its value is 0.41.

Q: What about the IC50 [4] of the same compound?
A: Its IC50 is 2110 ± 110 nM.

Q: And the IC50 [5]?
A: The IC50 was 8760 ± 610 nM.

Q: What about the melting point of the same compound?
A: Its melting point is 105 to 106.6 °C.

Q: For `COC(=O)c1c(C)ncc2c1C(=O)C(Br)=C(NC(CC(C)C)C(=O)OC)C2=O` (stereo not shown) [Compound 14], which IC50 [1] is on record?
A: The IC50 was 920 ± 40 nM.

Q: What about the IC50 [2] of the same compound?
A: The IC50 was > 100000 nM.

Q: What about the “MSI on lung and bladder cancer cells” value ([3]; MRC-5 vs SK-MES-1 and J82 only) of the same compound?
A: The value was > 45.

Q: What about the IC50 [6] of the same compound?
A: Its IC50 is 670 ± 60 nM.

Q: And the IC50 [4]?
A: The IC50 was > 100000 nM.

Q: And the “SI (normal fibroblasts)” value ([4]; as printed for normal fibroblasts)?
A: The value was > 100.

Q: What about the IC50 [5] of the same compound?
A: Its IC50 is 2210 ± 170 nM.

Q: And the SI ([7]; AG 1523 fibroblasts vs T24, DU-145, MCF-7)?
A: The SI was 2.62.

Q: And the IC50 ([7]; Homo sapiens, range over T24, DU-145, MCF-7, 48 h MTT, read-out: IC50 range in cancer cells)?
A: The IC50 was 500 to 670 nM.

Q: What about the IC50 [8] of the same compound?
A: The IC50 was 500 ± 50 nM.

Q: What about the melting point of the same compound?
A: Its melting point is 104.3 to 106.2 °C.

Q: And the IC50 [9]?
A: Its IC50 is 640 ± 60 nM.

Q: And the IC50 [10]?
A: The IC50 was 1570 ± 200 nM.

Q: With `COC(=O)c1c(C)ncc2c1C(=O)C(Br)=C(NC(Cc1ccccc1)C(=O)OC)C2=O` (stereo not shown) [Compound 15] as the compound, how does the IC50 [1] read?
A: Its IC50 is 2130 ± 120 nM.

Q: What about the IC50 [2] of the same compound?
A: Its IC50 is 2080 ± 130 nM.

Q: What about the “MSI: Mean Selective Index = IC50 values” value ([3]; SK-MES-1, J82) of the same compound?
A: The value was 1.52.

Q: And the IC50 [4]?
A: The IC50 was 4480 ± 270 nM.

Q: What about the IC50 [5] of the same compound?
A: Its IC50 is 4610 ± 360 nM.

Q: And the melting point?
A: Its melting point is 125.2 to 127.5 °C.
